# Measured values from PubChem BioAssay AID330 (DTP/NCI, 2004).
# Inconclusive results and toxic doses are left out. Numbered stars: 1 amine (or outer) side, 2 acyl side, 3 side chain; on linkers, the order of the positions; unused ones are H or OH. Bridge positions count the residues as written; N and C are the ends. Square brackets hold non-standard residues; d marks the D form. Peptide text beside a SMILES is read from it. I, II: the chains in the order shown. * marks the point of attachment. ξ: configuration not given here. Quinaldoyl(3-OH,6-OMe) = COc1ccc2nc(C(=O)*)c(O)cc2c1; X8 = CC(=O)OC1CC=NN([*:1])C1C(=O)[*:2]; ξNMeVal(3-OH) = CNC(C(=O)O)C(C)(C)O; X20 = O=C(C1CCCNN1[*:1])[*:2]; Sar = CNCC(=O)O
# System: P388 leukemia ip, CD2F1 mice, survival T/C
# Test: NCI In Vivo Anticancer Drug Screen. Data for tumor model P388 Leukemia (intraperitoneal) in CD2F1 (CDF1) mice
# Details: endpoint: median survival time, higher = longer survival
# How it was run: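 Mice carrying the transplanted tumor received test compound or vehicle. Survival was recorded in each group, and the value is the treated-group measurement divided by that of the vehicle-treated control group.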
# [1] = dose: 100.0 mg/kg/injection, schedule: Q04DX003 (ip), vehicle: Klucel (hydroxypropylcellulose) (HPC)
# [2] = dose: 200.0 mg/kg/injection, schedule: Q04DX003 (ip), vehicle: Klucel (hydroxypropylcellulose) (HPC)
# [3] = dose: 400.0 mg/kg/injection, schedule: Q04DX003 (ip), vehicle: Klucel (hydroxypropylcellulose) (HPC)
# [4] = dose: 50.0 mg/kg/injection, schedule: Q01DX009 (ip), vehicle: saline with Tween-80
# [5] = dose: 200.0 mg/kg/injection, schedule: Q01DX009 (ip), vehicle: saline with Tween-80
# [6] = dose: 100.0 mg/kg/injection, schedule: Q01DX009 (ip), vehicle: saline with Tween-80
# [7] = dose: 60.0 mg/kg/injection, schedule: Q01DX005 (ip), vehicle: Klucel (hydroxypropylcellulose) (HPC)
# [8] = dose: 120.0 mg/kg/injection, schedule: Q01DX005 (ip), vehicle: Klucel (hydroxypropylcellulose) (HPC)
# [9] = dose: 240.0 mg/kg/injection, schedule: Q01DX005 (ip), vehicle: Klucel (hydroxypropylcellulose) (HPC)
# [10] = dose: 6.25 mg/kg/injection, schedule: Q01DX009 (ip), vehicle: saline with Tween-80
# [11] = dose: 12.5 mg/kg/injection, schedule: Q01DX009 (ip), vehicle: saline with Tween-80
# [12] = dose: 25.0 mg/kg/injection, schedule: Q01DX009 (ip), vehicle: saline with Tween-80
# [13] = dose: 50.0 mg/kg/injection, schedule: Q01DX005 (ip), vehicle: saline with Tween-80
# [14] = dose: 100.0 mg/kg/injection, schedule: Q01DX005 (ip), vehicle: saline with Tween-80
# [15] = dose: 200.0 mg/kg/injection, schedule: Q01DX005 (ip), vehicle: saline with Tween-80
# [16] = dose: 50.0 mg/kg/injection, schedule: Q01DX009 (ip), vehicle: Klucel (hydroxypropylcellulose) (HPC)
# [17] = dose: 100.0 mg/kg/injection, schedule: Q01DX009 (ip), vehicle: Klucel (hydroxypropylcellulose) (HPC)
# [18] = dose: 200.0 mg/kg/injection, schedule: Q01DX009 (ip), vehicle: Klucel (hydroxypropylcellulose) (HPC)
# [19] = dose: 50.0 mg/kg/injection, schedule: Q01DX005 (ip), vehicle: Klucel (hydroxypropylcellulose) (HPC)
# [20] = dose: 100.0 mg/kg/injection, schedule: Q01DX005 (ip), vehicle: Klucel (hydroxypropylcellulose) (HPC)
smiles,measurement,setting,value
CCOC(=O)C12CCOC1(OC)NC(=O)C=C2C(=O)OC (stereo unspecified),T/C,[1],110 % of control
same,T/C,[2],110 % of control
same,T/C,[3],118 % of control
CCCCOCN(CCc1ccccc1)COCCCC,T/C,[4],118 % of control
same,T/C,[5],152 % of control
COc1ccc(Br)c(C(=O)Sc2nnnn2-c2cccc(Cl)c2)c1,T/C,[4],111 % of control
same,T/C,[6],116 % of control
same,T/C,[5],115 % of control
COc1ccc(C(c2cc3c(cc2O)OCO3)N2CCOCC2)c(OC)c1 (stereo unspecified),T/C,[7],101 % of control
same,T/C,[8],99 % of control
same,T/C,[9],110 % of control
OC(c1cc(-c2ccc(C(F)(F)F)cc2)nc(-c2ccc(C(F)(F)F)cc2)c1)C1CCCCN1 (stereo unspecified),T/C,[10],109 % of control
same,T/C,[11],107 % of control
same,T/C,[12],89 % of control
COC(=O)c1nc(=S)[nH]c(C(=O)OC)c1C(=O)c1ccc(O)cc1O,T/C,"dose: 60.0 mg/kg/injection, schedule: Q01DX005 (ip), vehicle: saline with Tween-80",99 % of control
same,T/C,"dose: 120.0 mg/kg/injection, schedule: Q01DX005 (ip), vehicle: saline with Tween-80",98 % of control
CN=C1OC2(c3ccccc3)C3=C(OC(=NC)N2C)C(=O)OC3(c2ccccc2)N1C (stereo unspecified),T/C,[7],98 % of control
same,T/C,[8],95 % of control
same,T/C,[9],91 % of control
O=C([O-])C(=O)[N-]CCC[N-]C(=O)C(=O)[N-]CCC[N-]C(=O)C(=O)[O-].[Cu+2].[Cu+2].[Na+],T/C,"dose: 3.75 mg/kg/injection, schedule: Q01DX005 (ip), vehicle: saline with Tween-80",103 % of control
same,T/C,"dose: 7.5 mg/kg/injection, schedule: Q01DX005 (ip), vehicle: saline with Tween-80",104 % of control
same,T/C,"dose: 15.0 mg/kg/injection, schedule: Q01DX005 (ip), vehicle: saline with Tween-80",101 % of control
OCc1cccc2c1Oc1ccccc1S2,T/C,"dose: 100.0 mg/kg/injection, schedule: Q01DX001 (ip), vehicle: saline with Tween-80",98 % of control
same,T/C,"dose: 200.0 mg/kg/injection, schedule: Q01DX001 (ip), vehicle: saline with Tween-80",98 % of control
same,T/C,"dose: 400.0 mg/kg/injection, schedule: Q01DX001 (ip), vehicle: saline with Tween-80",95 % of control
CC(C)C1=CC(=O)C(C)(C2C(O)CC3(C)C4CC=C5C(CCC(O)C5(C)C)C4(C)C(=O)CC23C)O1 (stereo unspecified),T/C,"dose: 10.13 mg/kg/injection, schedule: Q01DX005 (ip), vehicle: saline + alcohol",97 % of control
same,T/C,"dose: 20.25 mg/kg/injection, schedule: Q01DX005 (ip), vehicle: saline + alcohol",98 % of control
same,T/C,"dose: 40.05 mg/kg/injection, schedule: Q01DX005 (ip), vehicle: saline + alcohol",101 % of control
same,T/C,"dose: 81.0 mg/kg/injection, schedule: Q01DX005 (ip), vehicle: saline + alcohol",97 % of control
CC1=CC(=C(c2ccc(N)cc2)c2ccc(N)cc2)C=CC1=N,T/C,"dose: 1.56 mg/kg/injection, schedule: Q01DX005 (ip), vehicle: water",117 % of control
same,T/C,"dose: 3.12 mg/kg/injection, schedule: Q01DX005 (ip), vehicle: saline",117 % of control
same,T/C,"dose: 12.5 mg/kg/injection, schedule: Q01DX005 (ip), vehicle: water",116 % of control
CNc1nc2ncnc(NC)c2[nH]1,T/C,[13],99 % of control
same,T/C,[14],92 % of control
same,T/C,[15],90 % of control
O=[N+]([O-])c1ccc(C(S(=O)(=O)Cc2ccccc2)S(=O)(=O)Cc2ccccc2)cc1,T/C,[16],93 % of control
same,T/C,[17],89 % of control
same,T/C,[18],90 % of control
O=C(O)C/[N+]([O-])=N\O,T/C,"dose: 50.0 mg/kg/injection, schedule: Q01DX009 (ip), vehicle: saline",102 % of control
same,T/C,"dose: 100.0 mg/kg/injection, schedule: Q01DX009 (ip), vehicle: saline",102 % of control
same,T/C,"dose: 100.0 mg/kg/injection, schedule: Q04DX003 (ip), vehicle: saline",104 % of control
same,T/C,"dose: 200.0 mg/kg/injection, schedule: Q01DX009 (ip), vehicle: saline",96 % of control
same,T/C,"dose: 200.0 mg/kg/injection, schedule: Q04DX003 (ip), vehicle: saline",105 % of control
same,T/C,"dose: 400.0 mg/kg/injection, schedule: Q01DX009 (ip), vehicle: saline",94 % of control
same,T/C,"dose: 400.0 mg/kg/injection, schedule: Q04DX003 (ip), vehicle: saline",92 % of control
Cc1cc(NS(=O)(=O)c2ccc(N=c3c4ccccc4n(-c4ccccc4)c4ccccc34)cc2)no1,T/C,[13],103 % of control
same,T/C,[14],92 % of control
same,T/C,[15],90 % of control
CC(C)CCC1=CC(=O)C(CCC(C)C)=CC1=O,T/C,"dose: 3.12 mg/kg/injection, schedule: Q01DX009 (ip), vehicle: saline with Tween-80",104 % of control
same,T/C,[10],104 % of control
same,T/C,[11],106 % of control
same,T/C,[12],101 % of control
O=C(c1ccccc1)N1OC12CCCCC2,T/C,[19],102 % of control
same,T/C,[20],99 % of control
CC1(C)CCCC2(C)C1CCC1(C)OC(/C(=C\CO)CO)CC12 (stereo unspecified),T/C,[16],96 % of control
same,T/C,[17],86 % of control
c1ccc2[nH]c(CN(CCN(Cc3nc4ccccc4[nH]3)Cc3nc4ccccc4[nH]3)Cc3nc4ccccc4[nH]3)nc2c1,T/C,"dose: 1.56 mg/kg/injection, schedule: Q01DX005 (ip), vehicle: DMSO",104 % of control
same,T/C,"dose: 3.12 mg/kg/injection, schedule: Q01DX005 (ip), vehicle: DMSO",106 % of control
same,T/C,"dose: 6.25 mg/kg/injection, schedule: Q01DX005 (ip), vehicle: DMSO",105 % of control
same,T/C,"dose: 12.5 mg/kg/injection, schedule: Q01DX005 (ip), vehicle: DMSO",107 % of control
same,T/C,"dose: 25.0 mg/kg/injection, schedule: Q01DX005 (ip), vehicle: DMSO",108 % of control
"COc1ccc2nc(C(=O)NC3COC(=O)C(C(C)(C)O)N(C)C(=O)CN(C)C(=O)CNC(=O)C4CCCNN4C(=O)C(NC(=O)c4nc5ccc(OC)cc5cc4O)COC(=O)C(C(C)(C)O)N(C)C(=O)CN(C)C(=O)CNC(=O)C4C(OC(C)=O)CC=NN4C3=O)c(O)cc2c1 (stereo unspecified) (I: {Quinaldoyl(3-OH,6-OMe)}-S[X8]G[Sar][ξNMeVal(3-OH)] / II: {Quinaldoyl(3-OH,6-OMe)}-S[X20]G[Sar][ξNMeVal(3-OH)]; ester I:1-II:C, I:C-II:1; configuration not given here)",T/C,"dose: 20.0 micrograms/kg/injection, schedule: Q01DX005 (ip), vehicle: DMSO",97 % of control
same,T/C,"dose: 40.0 micrograms/kg/injection, schedule: Q01DX005 (ip), vehicle: DMSO",87 % of control
O=C(O)c1cc(C(=O)C(=O)c2cc(C(=O)O)c(O)c3ccccc23)c2ccccc2c1O,T/C,[4],95 % of control
same,T/C,[6],95 % of control
same,T/C,[5],101 % of control
CCC(C)c1ccc(S(=O)(=O)Nc2cc(Cl)c([N+](=O)[O-])cc2O)cc1 (stereo unspecified),T/C,[16],104 % of control
same,T/C,[17],100 % of control
same,T/C,[18],102 % of control
NC(CCCOS(=O)(=O)O)Cc1ccc2ccccc2c1 (stereo unspecified),T/C,[1],100 % of control
same,T/C,[2],100 % of control
same,T/C,[3],94 % of control
COC(=O)/C1=C\CC/C(C(=O)OC)=C\C(=O)CCC1,T/C,"dose: 25.0 mg/kg/injection, schedule: Q01DX005 (ip), vehicle: Klucel (hydroxypropylcellulose) (HPC)",101 % of control
same,T/C,[19],101 % of control
same,T/C,[20],103 % of control
C/C(CC(C)C(=O)O)=N/NC(N)=O (stereo unspecified),T/C,[19],97 % of control
same,T/C,[20],97 % of control
same,T/C,"dose: 200.0 mg/kg/injection, schedule: Q01DX005 (ip), vehicle: Klucel (hydroxypropylcellulose) (HPC)",97 % of control
CCCCCCCCCCCC[N+](C)([O-])Cc1ccccc1 (stereo unspecified),T/C,[16],89 % of control
Cc1ccc2c(c1)C1(C)C=C(CN3CCN(C)CC3)C(=O)CC1O2 (stereo unspecified),T/C,"dose: 50.0 mg/kg/injection, schedule: Q01DX005 (ip), vehicle: saline",108 % of control
same,T/C,"dose: 100.0 mg/kg/injection, schedule: Q01DX005 (ip), vehicle: saline",103 % of control
